{"source": "patent US8129359B2", "about": "“Composition and method for treating post-surgical pain” (Ethicon, Inc., priority 2004, dated 2012)", "key": {"Male Sprague Dawley rats": {"system": "Male Sprague Dawley rats", "assay": "Brennan surgical pain model (mechanical allodynia by von Frey filaments, mechanical hyperalgesia by pin-prick test)", "format": "in vivo, rat", "settings": "for Efficacy for reduction of post-surgical pain at a surgical wound site: in the oxidized regenerated cellulose-based system, MPE greater than 30 percent considered efficacious", "method": "In order to evaluate the analgesic efficacy of the composition containing oxidized regenerated cellulose particles dry blended with an NSAID powder (diclofenac sodium), the Brennan surgical pain model was used (Characterization of a rat model of incisional pain, Brennan, T. J., et al., Pain: 64 (1996); 493-501). The model was performed as follows. Male Sprague Dawley rats weighing 250-300 grams were used throughout the experiment. Prior to surgery, each animal was habituated to the testing environment and a baseline response to Semmes-Weinstein (von Frey) filaments was established. Animals were anesthetized using a fresh mixture of xylazine and ketamine containing 100 mg ketamine/ml and 20 mg xylazine/ml. Each animal was injected intramuscularly with 1 ml/kg to achieve surgical anesthesia. The left hind paw was aseptically prepared and a 1 cm incision through the skin and fascia was made on the plantar surface of the hind paw, extending from the ankle distally. The middle digital tendon was isolated and crushed using mosquito hemostats for 20 seconds. Following surgery animals were tested for mechanical sensitivity at 4, 24, 48, 72 and 96 hours following surgery.\nTen rats were evaluated in each of the following groups:\nGroup 1. Control group: all animals were given intraperitoneal (IP) injections of saline (1 ml/kg) 1 hour before testing for mechanical allodynia and hyperalgesia.\nThis equates to a total of 1 mg of diclofenac sodium or approximately 4 mg/kg for a 250 g animal.\nGroup 3: Immediately post-tendon crush, a single dose (20 mg of micronized oxidized regenerated cellulose with an approximate particle size of 20-25 microns blended with […]) was mixed with 100 microliters of a sterile saline solution. The composition was then applied to the site of the crushed tendon.\nThis equates to a total of 0.5 mg of diclofenac sodium or approximately 2 mg/kg for a 250 g animal. […]\nThis equates to a total of 2.0 mg of diclofenac sodium or approximately 8 mg/kg for a 250 g animal.\nThe pin-prick test was used to assess mechanical hyperalgesia. Briefly, a blunted safety pin was used to gently tent the plantar skin of each hind paw without breaking the skin. A stopwatch was used to measure the withdrawal time following this stimulus. Increased withdrawal time (in seconds) was interpreted as mechanical hyperalgesia.\nMechanical sensitivity or mechanical allodynia from each time point was normalized against the negative control group and against each individual animal's pre-surgical mechanical sensitivity. Mechanical sensitivity was assessed using a procedure described by Chaplan et al. (J. Neurosci. Methods 1994, 53: 55-63). A series of von Frey filaments of varying rigidity strength (typically eight filaments in the series) were applied to the plantar surface of the hind paw ipsilateral to the ligations with just enough force to bend the filament. […] A positive allodynic response consists of lifting the affected paw followed immediately by licking or shaking of the paw. The order and frequency with which the filaments were applied was determined using the Dixon up-down method. Testing was initiated with the middle filament of the series with subsequent filaments being applied in consecutive fashion, ascending or descending, depending on whether a negative or positive response, respectively, was obtained with the initial filament.\nResults are expressed as percent of Maximal Potential Efficacy (% MPE)."}, "[1]": {"assay": "Pharmacokinetic evaluation of diclofenac release in a rat model (plasma and incision-site tissue, LC/MS/MS)", "format": "in vivo", "method": "Pharmacokinetic studies in a rat model were conducted to determine the rate of diclofenac release from the composition. Male Sprague Dawley rats (four rats per time point per group) were anesthetized with isoflurane and subjected to a single surgical incision on the plantar surface of the left hind paw. The medial tendon was exposed by blunt dissection and subjected to a 20 second clamp using a mosquito hemostat.\nIn Group 1 the incision was sutured closed following manipulation of the tendon. The rats were administered an intraperitoneal injection of 5 mg/kg Diclofenac (as sodium salt, saline vehicle) 4 hours and 23 hours post-surgery. Blood and tissue samples were harvested at 0.25, 1, 4 and 6 hours after the second dose.\nIn Group 2, oxidized regenerated cellulose (Surgicel® Fibrillar absorbable hemostat) was implanted between the tendon and the metatarsals and 0.5 mg of Diclofenac (as sodium salt, saline vehicle) was instilled directly into the wound site and the incision was sutured closed. Blood samples were taken at 0.25,1, 4, 6, 24 and 48 hours post surgery.\nBlood was harvested into K-EDTA tubes via cardiac puncture while the rats were anesthetized with isoflurane. Rats were terminated immediately after the blood draw by CO2 inhalation, and the skin, muscle fascia and tendon of the left hind paw incision site were harvested. The contralateral tissue of the right hind paw was harvested and retained separately.\nBlood samples were centrifuged to yield plasma, the resulting plasma as well as tissue samples were sent to Covance, Madison Wis. for LC/MS/MS analysis of diclofenac. Briefly, the analytical method involves extracting ˜50 mg of tissue or 50 uL of plasma w/acetonitrile; the residue of the ACN extract is analyzed by tandem mass spectroscopy. The dynamic ranges of the plasma and tissue assays were 25 to 12,500 ng/mL and 25 to 12,500 ng/g, respectively."}, "[2]": {"settings": "Micronized (20–25 um) oxidized regenerated cellulose, dry/powder, 1 mg"}, "[3]": {"settings": "Surgicel Fibrillar absorbable hemostat 6 × 6 mm, solution, 0.5 mg"}, "[4]": {"settings": "Surgicel Fibrillar absorbable hemostat 6 × 6 mm, solution, 1.0 mg"}}, "note": "“Also recorded” adds a separate entry of the source. Structures can show the parent of a compound that is named as a salt."}
{"smiles": "O=C(O)Cc1ccccc1Nc1c(Cl)cccc1Cl", "note": "[DCF Sol'n, 2-[(2,6-dichlorophenyl)amino]-Benzeneacetic acid, monosodium salt]", "values": [{"measurement": "Period of analgesia", "setting": "Male Sprague Dawley rats; 6 mm×6 mm Surgicel Fibrillar oxidized regenerated cellulose plus diclofenac sodium and saline", "value": 48, "unit": "h"}, {"measurement": "Benefit at 72 hours", "setting": "Male Sprague Dawley rats; 6 mm×6 mm Surgicel Fibrillar oxidized regenerated cellulose plus diclofenac sodium and saline, 72 hours", "value": "smaller benefit"}, {"measurement": "Efficacy (duration of analgesic effect)", "setting": "Male Sprague Dawley rats; Interceed absorbable adhesion barrier 6 × 6 mm, solution, 0.5 mg", "value": 48, "unit": "h"}, {"measurement": "Efficacy (duration of analgesic effect)", "setting": "Male Sprague Dawley rats; Intraplantar injection, solution, 0.5 mg", "value": 4, "unit": "h"}, {"measurement": "Efficacy (duration of analgesic effect)", "setting": "Male Sprague Dawley rats; [2]", "value": 72, "unit": "h"}, {"measurement": "Efficacy (duration of analgesic effect)", "setting": "Male Sprague Dawley rats; Micronized (20–25 um) oxidized regenerated cellulose, solution, 1.0 mg, applied at crushed tendon", "value": 72, "unit": "h"}, {"measurement": "Significant increase in analgesic effect, through", "setting": "Male Sprague Dawley rats; Micronized oxidized regenerated cellulose (20-25 micron) mixed with diclofenac sodium and saline", "value": 72, "unit": "h"}, {"measurement": "Effect at 96 hours", "setting": "Male Sprague Dawley rats; Micronized oxidized regenerated cellulose (20-25 micron) mixed with diclofenac sodium and saline, 96 hours", "value": "some effect"}, {"measurement": "Efficacy (duration of analgesic effect)", "setting": "Male Sprague Dawley rats; Repeated IPL injec., solution, 0.5 mg", "value": 4, "unit": "h"}, {"measurement": "Efficacy (duration of analgesic effect)", "setting": "Male Sprague Dawley rats; [3]", "value": 48, "unit": "h"}, {"measurement": "Efficacy (duration of analgesic effect)", "setting": "Male Sprague Dawley rats; [4]", "value": 48, "unit": "h"}]}
{"smiles": "CC(C(=O)O)c1cccc(C(=O)c2ccccc2)c1", "note": "(stereo not drawn) [Ketoprofen Sol'n, ketoprofen]", "values": [{"measurement": "Efficacy (duration of analgesic effect)", "setting": "Male Sprague Dawley rats; [3]", "value": "Ineffective"}, {"measurement": "Efficacy for reduction of post-surgical pain at a surgical wound site", "setting": "Male Sprague Dawley rats", "value": "neither indomethacin nor ketoprofen is efficacious"}]}
{"smiles": "COc1ccc2c(c1)c(CC(=O)O)c(C)n2C(=O)c1ccc(Cl)cc1", "note": "[Inodmethacin Sol'n, indomethacin]", "values": [{"measurement": "Efficacy (duration of analgesic effect)", "setting": "Male Sprague Dawley rats; [3]", "value": "Ineffective"}, {"measurement": "Efficacy for reduction of post-surgical pain at a surgical wound site", "setting": "Male Sprague Dawley rats", "value": "neither indomethacin nor ketoprofen is efficacious"}]}
{"smiles": "Cc1cccc(C)c1NC(=O)C1CCCCN1C", "note": "(stereo not drawn) [Mepiv Sol'n, mepivacaine hydrochloride]", "values": [{"measurement": "Efficacy (duration of analgesic effect)", "setting": "Male Sprague Dawley rats; Intraplantar injection, solution, 1.0 mg", "value": 4, "unit": "h"}, {"measurement": "Efficacy (duration of analgesic effect)", "setting": "Male Sprague Dawley rats; [2]", "value": "Ineffec-"}, {"measurement": "Efficacy (duration of analgesic effect)", "setting": "Male Sprague Dawley rats; Repeated IPL injec., solution, 1.0 mg", "value": "72+ Hrs"}, {"measurement": "Efficacy (duration of analgesic effect)", "setting": "Male Sprague Dawley rats; [4]", "value": 4, "unit": "Hrs effect"}]}
{"smiles": "O=C(O)Cc1ccccc1Nc1c(Cl)cccc1Cl", "note": "[DCF Free acid, 2-((2,6-ichlorophenyl)amino)benzeneacetic acid]", "values": [{"measurement": "Efficacy for reduction of post-surgical pain at a surgical wound site", "setting": "Male Sprague Dawley rats", "value": "surprisingly efficacious"}, {"measurement": "Diclofenac concentrations at the surgical site", "setting": "[1]; after local administration of composition containing oxidized regenerated cellulose and diclofenac, FIG. 3A", "value": "remaining relatively high; also recorded: remained relatively high"}, {"measurement": "Tissue concentrations of diclofenac", "setting": "[1]; intraperitoneal injection of diclofenac solution, FIG. 3A", "value": "rapid decline"}, {"measurement": "Plasma concentrations of diclofenac, local administration compared with systemic administration", "setting": "[1]; local administration from the composition, FIG. 3B", "value": "much lower"}]}
{"smiles": "COc1cccc(C2(O)CCCCC2CN(C)C)c1", "note": "(stereo not drawn) [Tramadol Sol'n, tramadol]", "values": [{"measurement": "Efficacy (duration of analgesic effect)", "setting": "Male Sprague Dawley rats; Surgicel Fibrillar absorbable hemostat 6 × 6 mm, solution, 2 mg", "value": 24, "unit": "h"}]}
